Assay results published in patent US20130053381A1, “2,4-DIOXO-1,4-DIHYDRO-2H-QUINAZOLIN-3-YL-SULFONAMIDE DERIVATIVES” (NOVARTIS AG, priority 2010, published 2013).

Tested on: OF1 mice
Test: Maximal electroshock test (MES Test)
Type: in vivo
Settings: Mus musculus, po; 50 mg/kg, p.o., pre-treatment time −0.5 h (footnote d); read-out: %-Protection
Description: Compounds of the invention were tested in OF1 mice using the maximal electroshock test (MES Test) described in detail by Schmutz et al., Naunyn-Schmiedeberg's Arch Pharmacol 1990, 342, 61-66. Briefly, generalized tonic-clonic convulsions of the hind extremities were induced by passing electrical current through temporal electrodes (50 Hz, 18 mA, 0.2s). […] 30 mg/kg carbamazepine was used as a positive control; mice were classified as protected by a compound If the duration of the seizure lasted only 3 second or less. Five mice were used for each treatment condition and the percentage of protected mice was used as readout (i.e. a compound could give 0%, 20%, 40%, 60%, 80% or 100% protection). Usually, compounds of the invention or their parents were given at a dose of 50 mg/kg, p.o., 1 hour prior to induction of convulsions (i.e. “pre-treatment time −1 h”).
ED50 values (ED: effective dose) were calculated using GraphPad Prism, v4.02. after shock administration, mouse blood was collected for determination of compounds' blood exposure.

**Q.** `CC(=O)N(n1c(=O)[nH]c2cc(C(C)C)c(-c3ccnn3C)cc2c1=O)S(C)(=O)=O` [Example 3.01, N-Acetyl-N-[7-isopropyl-6-(2-methyl-2H-pyrazol-3-yl)-2,4-dioxo-1,4-dihydro-2H-quinazolin-3-yl]-methanesulfonamide] was tested. Which responders at 50 mg/kg did it give?
**A.** 100%

Same assay, conditions: Mus musculus, po; 50 mg/kg, p.o., pre-treatment time −1 h; read-out: %-Protection

**Q.** With `CCCCC(=O)N(n1c(=O)[nH]c2cc(C(F)(F)F)c(-c3ccnn3C)cc2c1=O)S(C)(=O)=O` [Example 1.01, N-[6-(2-Methyl-2H-pyrazol-3-yl)-2,4-dioxo-7-trifluoromethyl-1,4-dihydro-2H-guinazolin-3-yl]-N-pentanoyl-methanesulfonamide] as the compound, how does the responders at 50 mg/kg read?
**A.** 40%

**Q.** `CC(C)C(=O)N(n1c(=O)[nH]c2cc(C(F)(F)F)c(-c3ccnn3C)cc2c1=O)S(C)(=O)=O` [Example 1.02, N-Isobutyryl-N-[6-(2-methyl-2H-pyrazol-3-yl)-2,4-dioxo-7-trifluoromethyl-1,4-dihydro-2H-quinazolin-3-yl]-methanesulfonamide] was tested. Which responders at 50 mg/kg did it give?
**A.** 100%

**Q.** How did the responders at 50 mg/kg turn out when `CCCC(=O)N(n1c(=O)[nH]c2cc(C(F)(F)F)c(-c3ccnn3C)cc2c1=O)S(C)(=O)=O` [Example 1.03, N-Butyryl-N-[6-(2-methyl-2H-pyrazol-3-yl)-2,4-dioxo-7-trifluoromethyl-1,4-dihydro-2H-quinazolin-3-yl]-methanesulfonamide] was run?
**A.** 100%

**Q.** `CCCCCC(=O)N(n1c(=O)[nH]c2cc(C(F)(F)F)c(-c3ccnn3C)cc2c1=O)S(C)(=O)=O` [Example 1.04, N-Hexanoyl-N-[6-(2-methyl-2H-pyrazol-3-yl)-2,4-dioxo-7-trifluoromethyl-1,4-dihydro-2H-quinazolin-3-yl]-methanesulfonamide] was tested. Which responders at 50 mg/kg did it give?
**A.** 80%

**Q.** For `COC(=O)N(n1c(=O)[nH]c2cc(C(F)(F)F)c(-c3ccnn3C)cc2c1=O)S(C)(=O)=O` [Example 1.05, Methanesulfonyl-[6-(2-methyl-2H-pyrazol-3-yl)-2,4-dioxo-7-trifluoromethyl-1,4-dihydro-2H-quinazolin-3-yl]-carbamic acid methyl ester], which responders at 50 mg/kg is on record?
**A.** 80%

**Q.** For `CC(C)COC(=O)N(n1c(=O)[nH]c2cc(C(F)(F)F)c(-c3ccnn3C)cc2c1=O)S(C)(=O)=O` [Example 1.06, Methanesulfonyl-[6-(2-methyl-2H-pyrazol-3-yl)-2,4-dioxo-7-trifluoromethyl-1,4-dihydro-2H-quinazolin-3-yl]-carbamic acid isobutyl ester], which responders at 50 mg/kg is on record?
**A.** 60%

**Q.** How did the responders at 50 mg/kg turn out when `COCCOC(=O)N(n1c(=O)[nH]c2cc(C(F)(F)F)c(-c3ccnn3C)cc2c1=O)S(C)(=O)=O` [Example 1.07, Methanesulfonyl-[6-(2-methyl-2H-pyrazol-3-yl)-2,4-dioxo-7-trifluoromethyl-1,4-dihydro-2H-quinazolin-3-yl]-carbamic acid 2-methoxy-ethyl ester] was run?
**A.** 80%

**Q.** Which responders at 50 mg/kg does the source give for `CCc1cc2[nH]c(=O)n(N(C(C)=O)S(C)(=O)=O)c(=O)c2cc1-c1ccnn1C` [Example 2.01, N-Acetyl-N-[7-ethyl-6-(2-methyl-2H-pyrazol-3-yl)-2,4-dioxo-1,4-dihydro-2H-quinazolin-3-yl]-methanesulfonamide] here?
**A.** 100%

**Q.** `CCCOC(=O)N(n1c(=O)[nH]c2cc(CC)c(-c3ccnn3C)cc2c1=O)S(C)(=O)=O` [Example 2.06, Methanesulfonyl-[7-ethyl-6-(2-methyl-2H-pyrazol-3-yl)-2,4-dioxo-1,4-dihydro-2H-quinazolin-3-yl]-carbamic acid propyl ester] was tested. Which responders at 50 mg/kg did it give?
**A.** 60%

**Q.** With `CCc1cc2[nH]c(=O)n(N(C(=O)OC)S(C)(=O)=O)c(=O)c2cc1-c1ccnn1C` [Example 2.07, Methanesulfonyl-[7-ethyl-6-(2-methyl-2H-pyrazol-3-yl)-2,4-dioxo-1,4-dihydro-2H-quinazolin-3-yl]-carbamic acid methyl ester] as the compound, how does the responders at 50 mg/kg read?
**A.** 100%

**Q.** Which responders at 50 mg/kg does the source give for `CCOC(=O)N(n1c(=O)[nH]c2cc(CC)c(-c3ccnn3C)cc2c1=O)S(C)(=O)=O` [Example 2.08, Methanesulfonyl-[7-ethyl-6-(2-methyl-2H-pyrazol-3-yl)-2,4-dioxo-1,4-dihydro-2H-quinazolin-3-yl]-carbamic acid ethyl ester] here?
**A.** 80%

**Q.** How did the responders at 50 mg/kg turn out when `CCCCOC(=O)N(n1c(=O)[nH]c2cc(CC)c(-c3ccnn3C)cc2c1=O)S(C)(=O)=O` [Example 2.09, Methanesulfonyl-[7-ethyl-6-(2-methyl-2H-pyrazol-3-yl)-2,4-dioxo-1,4-dihydro-2H-quinazolin-3-yl]-carbamic acid butyl ester] was run?
**A.** 40%

**Q.** `CCC(=O)N(n1c(=O)[nH]c2cc(CC)c(-c3ccnn3C)cc2c1=O)S(C)(=O)=O` [Example 2.10, N-[7-Ethyl-6-(2-methyl-2H-pyrazol-3-yl)-2,4-dioxo-1,4-dihydro-2H-quinazolin-3-yl]-N-propionyl-methanesulfonamide] was tested. Which responders at 50 mg/kg did it give?
**A.** 100%

**Q.** For `CCCCC(=O)N(n1c(=O)[nH]c2cc(CC)c(-c3ccnn3C)cc2c1=O)S(C)(=O)=O` [Example 2.11, N-[7-Ethyl-6-(2-methyl-2H-pyrazol-3-yl)-2,4-dioxo-1,4-dihydro-2H-quinazolin-3-yl]-N-pentanoyl-methanesulfonamide], which responders at 50 mg/kg is on record?
**A.** 100%

**Q.** For `CCc1cc2[nH]c(=O)n(N(C(=O)OC(C)C)S(C)(=O)=O)c(=O)c2cc1-c1ccnn1C` [Example 2.12, Methanesulfonyl-[7-ethyl-6-(2-methyl-2H-pyrazol-3-yl)-2,4-dioxo-1,4-dihydro-2H-quinazolin-3-yl]-carbamic acid isopropyl ester], which responders at 50 mg/kg is on record?
**A.** 60%

**Q.** For `CCCCCOC(=O)N(n1c(=O)[nH]c2cc(CC)c(-c3ccnn3C)cc2c1=O)S(C)(=O)=O` [Example 2.13, Methanesulfonyl-[7-ethyl-6-(2-methyl-2H-pyrazol-3-yl)-2,4-dioxo-1,4-dihydro-2H-quinazolin-3-yl]-carbamic acid pentyl ester], which responders at 50 mg/kg is on record?
**A.** 20%

**Q.** For `CCc1cc2c(cc1-c1ccnn1C)c(=O)n(N(C(C)=O)S(C)(=O)=O)c(=O)n2C(C)=O` [Example 2.14, N-Acetyl-N-[1-acetyl-7-ethyl-6-(2-methyl-2H-pyrazol-3-yl)-2,4-dioxo-1,4-dihydro-2H-quinazolin-3-yl]-methanesulfonamide], which responders at 50 mg/kg is on record?
**A.** 100%

Same assay, conditions: Mus musculus, po; Dose: 15 mg/kg, p.o. (footnote c), pre-treatment time −1 h; read-out: %-Protection

**Q.** `COCCOC(=O)N(n1c(=O)[nH]c2cc(C(C)C)c(-c3ccnn3C)cc2c1=O)S(C)(=O)=O` [Example 3.02, [7-Isopropyl-6-(2-methyl-2H-pyrazol-3-yl)-2,4-dioxo-1,4-dihydro-2H-quinazolin-3-yl]-methanesulfonyl-carbamic acid 2-methoxy-ethyl ester] was tested. Which responders at 15 mg/kg did it give?
**A.** 100%

Same assay, conditions: Mus musculus, po; Dose: 25 mg/kg, p.o. (footnote b), pre-treatment time −1 h; read-out: %-Protection

**Q.** Which responders at 25 mg/kg does the source give for `CCCC(=O)N(n1c(=O)[nH]c2cc(CC)c(-c3ccnn3C)cc2c1=O)S(C)(=O)=O` [Example 2.02, N-Butyryl-N-[7-ethyl-6-(2-methyl-2H-pyrazol-3-yl)-2,4-dioxo-1,4-dihydro-2H-quinazolin-3-yl]-methanesulfonamide] here?
**A.** 100%

**Q.** With `CCCCCC(=O)N(n1c(=O)[nH]c2cc(CC)c(-c3ccnn3C)cc2c1=O)S(C)(=O)=O` [Example 2.03, N-[7-Ethyl-6-(2-methyl-2H-pyrazol-3-yl)-2,4-dioxo-1,4-dihydro-2H-quinazolin-3-yl]-N-hexanoyl-methanesulfonamide] as the compound, how does the responders at 25 mg/kg read?
**A.** 100%

**Q.** `CCc1cc2[nH]c(=O)n(N(C(=O)OCC(C)C)S(C)(=O)=O)c(=O)c2cc1-c1ccnn1C` [Example 2.04, Methanesulfonyl-[7-ethyl-6-(2-methyl-2H-pyrazol-3-yl)-2,4-dioxo-1,4-dihydro-2H-quinazolin-3-yl]-carbamic acid isobutyl ester] was tested. Which responders at 25 mg/kg did it give?
**A.** 80%

**Q.** `CCc1cc2[nH]c(=O)n(N(C(=O)OCCOC)S(C)(=O)=O)c(=O)c2cc1-c1ccnn1C` [Example 2.05, Methanesulfonyl-[7-ethyl-6-(2-methyl-2H-pyrazol-3-yl)-2,4-dioxo-1,4-dihydro-2H-quinazolin-3-yl]-carbamic acid 2-methoxy-ethyl ester] was tested. Which responders at 25 mg/kg did it give?
**A.** 80%

Same assay, conditions: Mus musculus, po; Table 5; 50 mg/kg, p.o., pre-treatment time −0.25 h; read-out: %-Protection

**Q.** With `CC(=O)N(n1c(=O)[nH]c2cc(C(C)C)c(-c3ccnn3C)cc2c1=O)S(C)(=O)=O` [Example 3.01, N-Acetyl-N-[7-isopropyl-6-(2-methyl-2H-pyrazol-3-yl)-2,4-dioxo-1,4-dihydro-2H-quinazolin-3-yl]-methanesulfonamide] as the compound, how does the responders at 50 mg/kg read?
**A.** 40%

Same assay, conditions: Mus musculus, po; Table 5; 50 mg/kg, p.o., pre-treatment time −1 h; read-out: %-Protection

**Q.** Which responders at 50 mg/kg does the source give for `CC(=O)N(n1c(=O)[nH]c2cc(C(C)C)c(-c3ccnn3C)cc2c1=O)S(C)(=O)=O` [Example 3.01, N-Acetyl-N-[7-isopropyl-6-(2-methyl-2H-pyrazol-3-yl)-2,4-dioxo-1,4-dihydro-2H-quinazolin-3-yl]-methanesulfonamide] here?
**A.** 100%

Same assay, conditions: Mus musculus; dose of up to 50 mg/kg, p.o., 1 hour prior to induction of convulsions; read-out: %-Protection

**Q.** `CCOC(=O)CCC(=O)N(n1c(=O)[nH]c2cc(C(F)(F)F)c(-c3ccnn3C(C)C)cc2c1=O)S(C)(=O)=O` [4-{[6-(2-Isopropyl-2H-pyrazol-3-yl)-2,4-dioxo-7-trifluoromethyl-1,4-dihydro-2H-quinazolin-3-yl]-methanesulfonyl-amino}-4-oxo-butyric acid ethyl ester] was tested. Which responders at 50 mg/kg did it give?
**A.** 0%

**Q.** How did the responders at 50 mg/kg turn out when `CCn1nccc1-c1cc2c(=O)n(N(C(=O)COC(C)=O)S(C)(=O)=O)c(=O)[nH]c2cc1C(F)(F)F` [Acetic acid 2-{[6-(2-ethyl-2H-pyrazol-3-yl)-2,4-dioxo-7-trifluoromethyl-1,4-dihydro-2H-quinazolin-3-yl]-methanesulfonyl-amino}-2-oxo-ethyl ester] was run?
**A.** 0%

**Q.** With `CC(=O)OCC(=O)N(n1c(=O)[nH]c2cc(C(F)(F)F)c(-c3ccnn3C(C)C)cc2c1=O)S(C)(=O)=O` [Acetic acid 2-{[6-(2-isopropyl-2H-pyrazol-3-yl)-2,4-dioxo-7-trifluoromethyl-1,4-dihydro-2H-quinazolin-3-yl]-methanesulfonyl-amino}-2-oxo-ethyl ester] as the compound, how does the responders at 50 mg/kg read?
**A.** 0%

Same assay, conditions: Table 5; 50 mg/kg, p.o., pre-treatment time −0.5 h

**Q.** `CC(=O)N(n1c(=O)[nH]c2cc(C(C)C)c(-c3ccnn3C)cc2c1=O)S(C)(=O)=O` [Example 3.01, N-Acetyl-N-[7-isopropyl-6-(2-methyl-2H-pyrazol-3-yl)-2,4-dioxo-1,4-dihydro-2H-quinazolin-3-yl]-methanesulfonamide] was tested. Which “%-Protection” value did it give?
**A.** 100%
